Read-outs that look alike come from different tables or passages of the source.
How the values were obtained:
Assay type in all cases: cell-based
human GPR40 (hGPR40) [1] = biological target: T1, human GPR40 (hGPR40) (Homo sapiens, UniProt O14842); test: Determination of intracellular Ca2+ concentration (FLIPR), cell line TXGPR40; conditions: for agonistic activity for GPR40 (in words): cells in which GPR40 has been transgenically expressed; for [Ca^2+]/GPR40 10 μM (ratio vs. LA): relative fluorescence intensity vs LA at 10 μM
T1 construct: expressed in transfected cells; doxycycline-inducible expression vector
Protocol: (§1) (1) In this test, The cell lines TXGPR40, TXGPR120 and GPR120/Flp-in were plated onto a collagen-coated black 96-well plate in 2×10^5 cells/well. The 96-well plates containing the cells were centrifuged and treated with Doxycycline (final concentration 10 μg/mL), incubated in a CO2 incubator for 21 hours, then used for assay.
(§2) (2) The ligand used in this test includes NCP04, NCP14, NCG20, NCG21, NCG22, NCG23, NCP02, NCP03, NCP05, NCP06, NCG14, NCG17, NCG19, NCG28, NCG29, NCG30, NCG31, NCG34, NCG35, NCG37, NCG38, NCG44, NCG45, NCG46, and NCG54. Each ligand was dissolved in DMSO and adjusted to the concentration of 10 mM, then diluted with Hanks' Balanced Salt Solution (pH 7.4) containing 20 mM HEPES (referred to as FLIPR buffer hereinafter) to the final concentration of 1 to 100 μM. 1% DMSO was used as the negative control, and LA was used as the positive control.
(§3) The ligands and controls were placed in different 96-well plates from the plates for the cells.
(§4) (3) The 96-well plate containing the cells was removed from the CO2 incubator. A fluorescent dye prepared in a twofold higher concentration (Ca Assay Kit Component A diluted with FLIPR Buffer) was added in 50 μL/well, then allowed to stand in the dark at room temperature for one hour.
(§5) (4) After one hour, the 96-well plate containing the cells and the 96-well plate in which ligands and controls were prepared were set on FLIPR (Fluorometric Imaging Plate Reader) for determination.
(§6) (5) Fluorometry using FLIPR was carried out at a laser output of 1.0 W for five minutes. […] after the start of the determination, the ligand (25 μL) was added dropwise to the cell plate at a rate of 50 μL/sec. The intensity of fluorescence was automatically digitized by the application program installed in the FLIPR from the image taken by the CCD camera (with exposure time of 0.40 sec). The interval of data sampling was one second for the initial one minute after the start of operation, and six seconds for the subsequent four minutes.
(§7) (6) The maximum fluorescence intensity was obtained from the data showing the change in the fluorescence intensity over time observed in each well. The maximum fluorescence intensity was plotted against ligand concentration, and pEC50 was calculated. The ratio of the fluorescence intensity for each ligand to LA at 10 μM was calculated as the relative intensity of each ligand.

human GPR120 (hGPR120) [2] = biological target: T2, human GPR120 (hGPR120) (Homo sapiens, UniProt Q5NUL3); test: Determination of intracellular Ca2+ concentration (FLIPR), cell line GPR120/Flp-in; conditions: for [Ca^2+]/GPR120/Flp-In 10 μM (ratio vs. LA): relative fluorescence intensity vs LA at 10 μM
T2 construct: expressed in transfected cells; doxycycline-inducible expression vector
T2 sequence (Q5NUL3 1-361): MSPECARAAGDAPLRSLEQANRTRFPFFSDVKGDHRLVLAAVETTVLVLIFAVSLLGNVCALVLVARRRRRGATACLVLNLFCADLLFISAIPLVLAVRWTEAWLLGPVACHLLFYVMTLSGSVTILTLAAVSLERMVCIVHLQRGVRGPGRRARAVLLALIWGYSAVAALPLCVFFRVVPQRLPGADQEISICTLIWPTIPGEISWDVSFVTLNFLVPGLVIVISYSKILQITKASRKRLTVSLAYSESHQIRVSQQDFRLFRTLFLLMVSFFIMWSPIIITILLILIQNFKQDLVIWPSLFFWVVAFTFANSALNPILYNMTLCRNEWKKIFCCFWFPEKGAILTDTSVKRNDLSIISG
Protocol: as §1, §2, §3, §4, §5, §6, §7

human GPR40 (hGPR40) [3] = biological target: T1, human GPR40 (hGPR40); test: ERK assay, screening for GPR40 ligands in cell line TXGPR40; conditions: ligand 10 μM, TXGPR40 cells, class relative to LA
Protocol: (§8) This Test 1 was carried out by using the following materials and methods.
(§9) (1) In this test, the cell lines TXGPR40 and TXGPR120 were plated in 35-mm dishes in 5×10^5 cells/per dish.
(§10) Each ligand was dissolved in DMSO, diluted tenfold with the medium to make the total amount of 100 μl. DMSO was used as the negative control, and PMA (phorbol-12-myristate-13-acetate) was used as the positive control.
(§11) (3) The medium was removed from the dish of the cell to reduce the total amount of liquid to 0.9 ml.
(§12) (4) The ligand solution was added dropwise to the cell solution, and dispersed by gently shaking the dish, and allowed to react at room temperature.
(§13) (5) After 5 minutes of reaction, the medium was discarded, and the remaining medium on the dish was removed on ice using an aspirator.
(§14) (6) 150 μl of Lysis buffer (50 mM HEPES (pH 7.0), 150 mM NaCl, 10% glycerol, 1% NonidetP-40, 2 mM MgCl2, 1 mM EDTA, 100 mM NaF, 10 mM sodium phosphate, 1 mM Na3VO4, 20 mM β-glycerophosphate, and Proteinase inhibitor) were added, then the cells were collected using a cell scraper.
(§15) (1) The crude enzyme solution mixed with SDS Sample Buffer was subjected to ultrasonication with a sonifier, then incubated at 90° C. for five minutes.
(§16) (2) The mixture was vortexed and centrifuged at 15,000 rpm for five minutes at 4° C.
(§17) (3) The supernatant of the centrifuged sample was applied to two 7.5% acrylamide gel slabs placed in an electrophoresis tank filled with 1×SDS-PAGE Running Buffer (25 mM Tris, 0.2 M Glycin, and 1% SDS). Electrophoresis was carried out under a constant current of 40 mA for about 80 to 90 minutes.
(§18) (1) A PVDF membrane cut in the same size as the gel slab was immersed in methanol for about 15 seconds and then shaken in Transfer Buffer C solution (25 mM Tris, 0.02% SDS, 2% methanol and 40 mM 6-aminohexanoic acid) at room temperature to swell for 15 minutes. Filter paper for blotting was cut into a 10-cm square.
(§19) (2) On the blotting apparatus were placed sequentially two pieces of filter paper immersed in A solution (0.3 M Tris, 0.02% SDS and 2% methanol), two pieces of filter paper immersed in B solution (25 mM Tris, 0.02% SDS and 2% methanol), and the membrane thereon. The gel slab after electrophoresis, and finally two pieces of filter paper immersed in C solution was placed thereon, and the apparatus was closed.
(§20) (3) The protein was transferred to the membrane at 15 V for 30 minutes.
(§21) (1) The following procedure was all carried out at room temperature. After the protein transfer, the membrane was placed into a vial containing 1×TTBS (0.2 M Tris, 1.5 M NaCl, 0.2% Tween 20) and washed for 15 minutes.
(§22) (2) TTBS was discarded, and about 10 ml of Block Ace was added and blocked on a shaker for one hour.
(§23) (1) The primary antibodies (p44/42 MAP Kinase Antibody and Phospho-p44/42 MAP Kinase Antibody) were each diluted 1000-fold with TTBS.
(§24) (2) After blocking, the Block Ace solution was removed, the solution of the primary antibody was added and allowed to react on the shaker for two hours.
(§25) (1) The secondary antibody (Anti-rabbit Ig, Horseradish Peroxidase linked F(ab′)2 fragments) was diluted 5000-fold with TTBS.
(§26) (2) The primary antibody solution was removed and the membrane was washed three times on the shaker in TTBS for five to ten minutes each.
(§27) (3) TTBS was removed and the solution of secondary antibody was added and left for 1 hour on the shaker.
(§28) (1) 2 ml each of Detection Reagent 1 and Detection Reagent 2 from ECL kit were mixed together on ice.
(§29) (2) The solution of secondary antibody was removed from the membrane reacted with the secondary antibody and then washed three times on the shaker in TTBS for five minutes each.
(§30) (3) The liquid was thoroughly removed from the membrane, which was then placed in a plastic bag, and 2 ml of the Detection Reagent mixture was added per each membrane.
(§31) (4) The membrane was kept in contact with a film in the cassette for one to five minutes, and the film was developed using an automatic developing machine.

human GPR120 (hGPR120) [4] = biological target: T2, human GPR120 (hGPR120); test: Determination of intracellular Ca2+ concentration (FLIPR), cell line TXGPR120; conditions: for selectivity between GPR40 and GPR120 (in words), from Tables 3 and 4: GPR40 versus GPR120, Ca2+ and ERK results; for agonistic activity for hGPR120 (in words): cells in which GPR120 has been transgenically expressed; for [Ca^2+]/GPR120 10 μM (ratio vs. LA): relative fluorescence intensity vs LA at 10 μM, TXGPR120 cells
Protocol: as §1, §2, §3, §4, §5, §6, §7

human GPR120 (hGPR120) [5] = biological target: T2, human GPR120 (hGPR120); test: ERK assay, screening for GPR120 ligands in cell line TXGPR120; conditions: TXGPR120 cells, class relative to LA;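 as to ERK/GPR120 10 μM: signals normalized between DMSO and PMA controls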
Protocol: as §8, §9, §10, §11, §12, §13, §14, §15, §16, §17, §18, §19, §20, §21, §22, §23, §24, §25, §26, §27, §28, §29, §30, §31

[6] = TXGPR40 cells, maximum fluorescence intensity vs ligand concentration, read-out: [Ca^2+]/GPR40 pEC50 (converted)
[7] = GPR120/Flp-in cells, maximum fluorescence intensity vs ligand concentration, read-out: [Ca^2+]/GPR120/Flp-In pEC50 (converted)

T1 sequence (O14842 whole entry): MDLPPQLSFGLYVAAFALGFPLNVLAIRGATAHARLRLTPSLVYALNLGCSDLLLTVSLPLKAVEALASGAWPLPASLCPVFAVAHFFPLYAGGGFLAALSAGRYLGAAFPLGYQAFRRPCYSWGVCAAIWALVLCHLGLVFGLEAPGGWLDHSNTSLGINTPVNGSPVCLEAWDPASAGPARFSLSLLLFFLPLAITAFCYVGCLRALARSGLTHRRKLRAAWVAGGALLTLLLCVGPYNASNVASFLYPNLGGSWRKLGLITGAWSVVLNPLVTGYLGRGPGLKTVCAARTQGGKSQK

Compound | EC50 (human GPR40 (hGPR40) [1]; [6]) [µM] | EC50 (human GPR120 (hGPR120) [2]; [7]) [µM] | ERK/GPR40 10 μM (human GPR40 (hGPR40) [3]) | agonistic activity for GPR40 (in words) (human GPR40 (hGPR40) [1]) | [Ca^2+]/GPR40 10 μM (ratio vs. LA) (human GPR40 (hGPR40) [1]; TXGPR40 cells) | selectivity between GPR40 and GPR120 (in words), from Tables 3 and 4 (human GPR120 (hGPR120) [4]) | agonistic activity for hGPR120 (in words) (human GPR120 (hGPR120) [4]) | [Ca^2+]/GPR120 10 μM (ratio vs. LA) (human GPR120 (hGPR120) [4]) | [Ca^2+]/GPR120/Flp-In 10 μM (ratio vs. LA) (human GPR120 (hGPR120) [2]; GPR120/Flp-in cells) | EC50 (human GPR40 (hGPR40) [1]) [µM] | EC50 (human GPR120 (hGPR120) [2]) [µM] | ERK/GPR120 10 μM (human GPR120 (hGPR120) [5]; ligand 10 μM) | ERK/GPR120 100 μM (human GPR120 (hGPR120) [5]; ligand 100 μM)
CCCCN(CCOc1ccc(CCCCC(=O)O)cc1)c1ccccn1 [NCG22, 5-{4-[2-(2-butylpyridinylamino)ethoxy]phenyl}pentanoic acid] | 20.4 | 19.1 |  |  |  |  |  |  |  |  |  |  | 
c1ccc(Oc2cccc(CNc3ccc(CCc4nnn[nH]4)cc3)c2)cc1 [NCG17] | 3.39 | 5.89 | ++ (++ denotes 50 to 100% of LA) | showed a specific reactivity | 1.34 | selective agonists for GPR40 | exhibit a similar effect | 0.00 | 0.59 |  |  |  | 
CCCCN(CCOc1ccc(CCCC(=O)O)cc1)c1ccccn1 [NCG20, 4-{4-[2-(2-butylpyridinylamino)ethoxy]phenyl}butanoic acid] |  |  |  |  |  |  |  |  |  | 27.5 | 12.6 |  | 
O=C(O)CCCc1ccc(OCCN(c2cccnc2)c2ccccn2)cc1 [NCG45] |  | 10 |  |  | 0.01 |  | exhibit a similar effect | 0.01 | 0.65 |  |  | + (+ denotes 0 to 100% of LA) | ++ (++ denotes 50 to 100% of LA)
O=C(O)CCc1ccc(NCc2cccc3ncccc23)cc1 [NCG14] |  | 14.8 | ++ (++ denotes 50 to 100% of LA) | showed a specific reactivity | 1.17 | selective agonists for GPR40 | exhibit a similar effect | 0.00 | 0.43 |  |  |  | 
